Calls of active or inactive are those of the source. How the calls were made is not given here.
Test system: CCRIS mutagenicity, Ames/micronucleus/aberration tests
Assay: CCRIS mutagenicity studies
[1] = Test System: AMES SALMONELLA TYPHIMURIUM, Strain/Indicator: TA100, Metabolic Activation: NONE, Method: STANDARD PLATE
[2] = Test System: AMES SALMONELLA TYPHIMURIUM, Strain/Indicator: TA100, Metabolic Activation: RAT, LIVER, S-9, AROCLOR 1254, Method: STANDARD PLATE

**Q.** For `Clc1ccc(-c2ccccc2)cc1`, which mutagenic call (End Point: In vitro micronucleus, Test System: Chinese hamster lung fibroblasts (V79 cells), Metabolic Activation: None) is on record?
**A.** inactive; negative

**Q.** What about the mutagenic call (End Point: In vivo mutagenicity, Test System: Lung, Species: Rat, Strain/Sex: Big Blue/male, Route: Intraperitoneal) of the same compound?
**A.** inactive; negative (2-fold increase in mutant frequency for 4-chlorobiphenyl and its metab

**Q.** What about the mutagenic call (Test System: Chinese hamster lung fibroblasts, Strain/Indicator: V79 (HPRT)/6-thioguanine, Metabolic Activation: None, Method: Standard plate) of the same compound?
**A.** inactive; negative. study examines mutagenicity of metabolites synthesized in lab and iden

**Q.** `CCCc1cc(=O)oc2c3c(c4c(c12)OC(C)(C)CC4)O[C@@H](C)[C@H](C)[C@@H]3O` was tested. Which mutagenic call (Test System: Mouse lymphoma, Strain/Indicator: L5178Y (tk+/tk-), Metabolic Activation: None, Method: Suspension/plate) did it give?
**A.** inactive; negative

**Q.** And the mutagenic call (Test System: Mouse lymphoma, Strain/Indicator: L5178Y (tk+/tk-), Metabolic Activation: Rat, Liver, S-9, Aroclor 1254, Method: Suspension/plate)?
**A.** inactive; negative

**Q.** Which results are given for `CSC(C)(C)/C=N/O`?
**A.** mutagenic call (End Point: IN VITRO CHROMOSOMAL ABERRATIONS, Test System: CHO-LB CELLS, Metabolic Activation: NONE): inactive; negative; mutagenic call (End Point: IN VITRO CHROMOSOMAL ABERRATIONS, Test System: CHO-LB CELLS, Metabolic Activation: RAT, LIVER, S-9, AROCLOR 1254): inactive; negative; mutagenic call (Test System: AMES SALMONELLA TYPHIMURIUM, Strain/Indicator: TA98, Metabolic Activation: HAMSTER, LIVER, S-9, AROCLOR 1254, Method: STANDARD PLATE): inactive; negative; mutagenic call (Test System: AMES SALMONELLA TYPHIMURIUM, Strain/Indicator: TA98, Metabolic Activation: NONE, Method: STANDARD PLATE): inactive; negative; mutagenic call (Test System: AMES SALMONELLA TYPHIMURIUM, Strain/Indicator: TA98, Metabolic Activation: RAT, LIVER, S-9, AROCLOR 1254, Method: STANDARD PLATE): inactive; negative; mutagenic call (Test System: AMES SALMONELLA TYPHIMURIUM, Strain/Indicator: TA100, Metabolic Activation: HAMSTER, LIVER, S-9, AROCLOR 1254, Method: STANDARD PLATE): inactive; negative; mutagenic call [1]: inactive; negative; mutagenic call [2]: inactive; negative; mutagenic call (Test System: AMES SALMONELLA TYPHIMURIUM, Strain/Indicator: TA1535, Metabolic Activation: HAMSTER, LIVER, S-9, AROCLOR 1254, Method: STANDARD PLATE): inactive; negative; mutagenic call (Test System: AMES SALMONELLA TYPHIMURIUM, Strain/Indicator: TA1535, Metabolic Activation: NONE, Method: STANDARD PLATE): inactive; negative; mutagenic call (Test System: AMES SALMONELLA TYPHIMURIUM, Strain/Indicator: TA1535, Metabolic Activation: RAT, LIVER, S-9, AROCLOR 1254, Method: STANDARD PLATE): inactive; negative; mutagenic call (Test System: AMES SALMONELLA TYPHIMURIUM, Strain/Indicator: TA1537, Metabolic Activation: HAMSTER, LIVER, S-9, AROCLOR 1254, Method: STANDARD PLATE): inactive; negative; mutagenic call (Test System: AMES SALMONELLA TYPHIMURIUM, Strain/Indicator: TA1537, Metabolic Activation: NONE, Method: STANDARD PLATE): inactive; negative; mutagenic call (Test System: AMES SALMONELLA TYPHIMURIUM, Strain/Indicator: TA1537, Metabolic Activation: RAT, LIVER, S-9, AROCLOR 1254, Method: STANDARD PLATE): inactive; negative; mutagenic call (Test System: AMES SALMONELLA TYPHIMURIUM, Strain/Indicator: TA1538, Metabolic Activation: HAMSTER, LIVER, S-9, AROCLOR 1254, Method: STANDARD PLATE): inactive; negative; mutagenic call (Test System: AMES SALMONELLA TYPHIMURIUM, Strain/Indicator: TA1538, Metabolic Activation: NONE, Method: STANDARD PLATE): inactive; negative; mutagenic call (Test System: AMES SALMONELLA TYPHIMURIUM, Strain/Indicator: TA1538, Metabolic Activation: RAT, LIVER, S-9, AROCLOR 1254, Method: STANDARD PLATE): inactive; negative; mutagenic call (Test System: MOUSE LYMPHOMA, Strain/Indicator: L5178Y (TK+/TK-), Metabolic Activation: NONE, Method: SUSPENSION/PLATE): inactive; negative. reevaluation of results: equivocal; mutagenic call (Test System: MOUSE LYMPHOMA, Strain/Indicator: L5178Y (TK+/TK-), Metabolic Activation: RAT, LIVER, S-9, AROCLOR 1254, Method: SUSPENSION/PLATE): inactive; negative. reevaluation of results: negative

**Q.** `O=[N+]([O-])c1ccc(Br)c([N+](=O)[O-])c1` was tested. Which mutagenic call (Test System: AMES SALMONELLA TYPHIMURIUM, Strain/Indicator: TA98(1,8-DNP6), Metabolic Activation: NONE, Method: PREINCUBATION) did it give?
**A.** active; positive

**Q.** What about the mutagenic call (Test System: AMES SALMONELLA TYPHIMURIUM, Strain/Indicator: TA98(NR), Metabolic Activation: NONE, Method: PREINCUBATION) of the same compound?
**A.** active; positive

**Q.** What about the mutagenic call (Test System: AMES SALMONELLA TYPHIMURIUM, Strain/Indicator: TA98, Metabolic Activation: NONE, Method: PREINCUBATION) of the same compound?
**A.** active; positive

**Q.** And the mutagenic call (Test System: AMES SALMONELLA TYPHIMURIUM, Strain/Indicator: TA100(NR), Metabolic Activation: NONE, Method: PREINCUBATION)?
**A.** active; positive

**Q.** And the mutagenic call (Test System: AMES SALMONELLA TYPHIMURIUM, Strain/Indicator: TA100/GSH-, Metabolic Activation: NONE, Method: PREINCUBATION)?
**A.** active; positive

**Q.** And the mutagenic call (Test System: AMES SALMONELLA TYPHIMURIUM, Strain/Indicator: TA100, Metabolic Activation: NONE, Method: PREINCUBATION)?
**A.** active; positive

**Q.** `O=C(Cn1ccnc1[N+](=O)[O-])NCc1ccccc1` was tested. Which mutagenic call [1] did it give?
**A.** active; positive

**Q.** What about the mutagenic call [2] of the same compound?
**A.** active; positive

**Q.** For `CCCCNC(=O)OCC#CI`, which mutagenic call (End Point: Ames Salmonella typhimurium, Test System: TA98, Metabolic Activation: S-9, Method: Not specified) is on record?
**A.** inactive; negative

**Q.** And the mutagenic call (End Point: Ames Salmonella typhimurium, Test System: TA100, Metabolic Activation: S-9, Method: Not specified)?
**A.** inactive; negative

**Q.** What about the mutagenic call (End Point: Ames Salmonella typhimurium, Test System: TA1535, Metabolic Activation: S-9, Method: Not specified) of the same compound?
**A.** inactive; negative

**Q.** What about the mutagenic call (End Point: Ames Salmonella typhimurium, Test System: TA1537, Metabolic Activation: S-9, Method: Not specified) of the same compound?
**A.** inactive; negative

**Q.** And the mutagenic call (End Point: Ames Salmonella typhimurium, Test System: TA1538, Metabolic Activation: S-9, Method: Not specified)?
**A.** inactive; negative

**Q.** What about the mutagenic call (End Point: In vivo micronucleus, Test System: Bone marrow polychromatic erythrocytes, Species: Mouse, Strain/Sex: CD-1/Males and females, Route: Oral) of the same compound?
**A.** inactive; negative

**Q.** And the mutagenic call (Test System: Ames Salmonella typhimurium, Strain/Indicator: TA98, Metabolic Activation: None, Method: Not specified)?
**A.** inactive; negative

**Q.** What about the mutagenic call (Test System: Ames Salmonella typhimurium, Strain/Indicator: TA100, Metabolic Activation: None, Method: Not specified) of the same compound?
**A.** inactive; negative

**Q.** And the mutagenic call (Test System: Ames Salmonella typhimurium, Strain/Indicator: TA1535, Metabolic Activation: None, Method: Not specified)?
**A.** inactive; negative

**Q.** What about the mutagenic call (Test System: Ames Salmonella typhimurium, Strain/Indicator: TA1537, Metabolic Activation: None, Method: Not specified) of the same compound?
**A.** inactive; negative

**Q.** What about the mutagenic call (Test System: Ames Salmonella typhimurium, Strain/Indicator: TA1538, Metabolic Activation: None, Method: Not specified) of the same compound?
**A.** inactive; negative
